# Source: patent publication US20200216493A1, “ANTIMICROBIAL PEPTIDES” (FERRING B.V., priority 2016, published 2020)
# Tests used:
# [1] = system: E.coli; format: cell-based, Escherichia coli
# [2] = system: S. epidermidis (5 isolates); format: cell-based, Staphylococcus epidermidis; conditions: 20 h
# Description: (§1) The broth microdilution susceptibility assay followed the procedure described by the Clinical and Laboratory Standards Institute (CLSI) in CLSI document M7-A10.
# (§2) The following bacteria isolates were tested:
# (§3) S.aureus, S.epidermidis, E.faecalis, and E.faecium colonies were grown on TSA (Tryptone Soya Agar; cat.N. P05012A -OXOID) S.pneumoniae and S.pyogenes colonies were grown on TSASB ((TSA) Agar +5% Sheep Blood; cat.N. PB5012A -OXOID). An inoculum was prepared by making a direct saline suspension of isolated colonies selected from an 18 to 24 hours agar plate incubated at 35±2 ° C. in ambient air. The suspension was adjusted to achieve a turbidity equivalent to a 0.5 McFarland turbidity standard (1 to 2 ×10^8 Colony Forming Units (CFU)) and diluted 200 fold within 15 minutes in broth. (S.aureus, S.epidermidis, E.faecalis, and E.faecium were diluted in CAMHB: Mueller Hinton Broth 2, Cation-Adjusted (cat. N. 90922 Fluka); S.pneumoniae and S.pyogenes were diluted in CAMHB +2.5% lysed horse blood. All broth contained 0.002% polysorbate 80.
# (§4) 96-well plates were prepared containing 1 μL of the test compound (at 100× desired test concentration in 100% DMSO); compounds were tested at 8 final concentrations, i.e. 16 μg/mL, 8 μg/mL, 4 μg/mL, 2 μg/mL, 1 μg/mL, 0.5 μg/mL, 0.25 μg/mL, and 0.125 μg/mL. 100 μL of the broth dilution was dispensed in each well plate to have a final bacterial concentration in plate of ˜5×10^5 CFU/mL. The plates were incubated at 35±2° C. in ambient air for 20 hours.
# [3] = system: S.aureus; format: cell-based, Staphylococcus aureus
# Summary of the method: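 Broth microdilution in Mueller-Hinton broth, ~5×10^5 cfu/mL inoculum, twofold compound dilutions in duplicate, 16–20 h at 37 °C with shaking. MIC (μg/mL) is the lowest concentration giving OD600 <0.08.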
# [4] = system: C. difficile; conditions: anaerobic broth microdilution, read after 44-48 hours, Example 17b
# [5] = system: E. faecalis (5 isolates); format: cell-based, Enterococcus faecalis; conditions: 20 h
# Description: as §1, §2, §3, §4
# [6] = system: S. pneumoniae (8 isolates); format: cell-based, Streptococcus pneumonia; conditions: 20 h
# Description: as §1, §2, §3, §4
# [7] = system: E. faecium (3 isolates); format: cell-based, Enterococcus faecium; conditions: 20 h
# Description: as §1, §2, §3, §4
# [8] = system: B. fragilis
# [9] = system: S. aureus (14 isolates); format: cell-based, Staphylococcus aureus; conditions: 20 h
# Description: as §1, §2, §3, §4
# [10] = system: S. pyogenes (2 isolates); format: cell-based, Streptococcus pyogenes; conditions: 20 h
# Description: as §1, §2, §3, §4
# [11] = in vitro; format: cell-based; conditions: human, HepG2 cells
# Description: Compounds were tested for cytotoxicity to a mammalian cell line HepG2 (Human hepatocyte carcinoma from ECACC (85011430)). Hep G2 cells were seeded into 96-well plates, 7500 cells/well in 100 μl medium (Minimum Essential Medium (Gibco 21090) supplemented with 2 mM L-Glutamine, 1% non-essential amino acids and 10% fetal bovine serum) and incubated for 20 hours at 37° C., 5% CO2. 100 μL of fresh medium containing a test compound or DMSO (for control) at 2× final concentration were added and incubated for 48 hours at 37° C., 5% CO2. The final concentration of DMSO in plate was 1%. At the end of this incubation, 20 μl MTT (Thiazolyl Blue Tetrazolium Bromide) solution 5 mg/ml in H2O (0.5 mg/ml final in well) was added to all wells. Cells were incubated with MTT for 4 hours at 37° C., 5% CO2. After incubation, medium containing MTT was removed; 200 μl of DMSO was added in each well and plates were put on a shaker for 5 minutes. Absorbance was read on a SpectraMax plate reader at 570 nm. Specific absorbance (Specific A570) was calculated by subtracting the mean absorbance values of the blank wells (no HepG2 cells) from each well. Control values were determined from wells containing cells and treated with medium+1% DMSO only (no test compound). % viability was calculated as:
# (Specific A570test compound/Specific A570control)×100.
compound,measurement,setting,value
"CC[C@H](C)[C@H](NC(=O)[C@@H](Cc1ccccc1)NC)C(=O)N[C@@H](CO)C(=O)N[C@H](CCC(N)=O)C(=O)N[C@@H](C(=O)N[C@H](C(=O)N[C@@H](CO)C(=O)N[C@H]1C(=O)N[C@@H](C)C(=O)N[C@@H](CCCCNC(=N)N)C(=O)N[C@@H]([C@@H](C)CC)C(=O)O[C@H]1C)[C@@H](C)CC)[C@@H](C)CC [Compound 5, H-D-MePhe-Ile-Ser-D-Gln-D-aIle-Ile-Ser-c(D-Thr-Ala-Har-Ile)]",MIC E. coli,[1],10 µg/mL
same,MIC ratio Coli/Staph,[1]; ratio of E. coli MIC to S. aureus MIC,77
same,S. epidermidis (MIC90) (5),[2],≤0.12 µg/mL
same,MIC S. aureus,[3],0.13 µg/mL
same,MIC C. difficile,[4],<0.03 to 0.06 µg/mL
same,E. faecalis (5) MIC90,[5],0.5 µg/mL
same,S. pneumoniae (8) MIC90,[6],≤0.12 µg/mL
same,E. faecium (3) MIC90,[7],0.5 µg/mL
same,MIC B. fragilis,[8],>32 µg/mL
same,S. Aureus (14) MIC90,[9],0.25 µg/mL
same,S. pyogenes (2) MIC90,[10],≤0.12 µg/mL
same,"viability at 48 h, 100 µM",[11],117%
